The values below come from ChEMBL document CHEMBL1139402, “Design and SAR of new substituted purines bearing aryl groups at N9 position as HIV-1 Tat-TAR interaction inhibitors” (Bioorg Med Chem, 2008).

The nature of data set [1]: Selectivity index, ratio of TC50 for human CEM cells to EC50 for SIV-induced syncytium. Also noted: species or system CCRF-CEM.
In data set [2] the test system is Simian immunodeficiency virus. The data set is described as follows: Antiviral activity against SIV-induced syncytium in human CEM cells assessed as inhibition of virus-induced cytopathogenicity after 5 days. The following applies: CCRF-CEM, 120 h. Type of data set: functional, organism-based.
Data set [3] in a line: Cytotoxicity against human CEM cells assessed as inhibition of uninfected cells proliferation. The following applies: CEM (CCRF-CEM) cells, read-out: TC50 (the source's name). Type of data set: cell-based.
Data set [4] deals with Human immunodeficiency virus 1. The data set is described as follows: Inhibition of HIV1 Tat-TAR interaction-mediated transactivation in human 293T cells assessed as CAT gene expression at 30 uM after 24 hrs by ELISA. Type of data set: functional. The following applies: Human immunodeficiency virus 1, HEK-293T. (An ELISA detects its analyte on a solid surface through an enzyme-linked reagent.)

For `CCN(CC)c1nc(C)c2nc(SCC(=O)NCCNC(=N)N)n(CCn3cncn3)c2n1`, the Ratio in data set [1] is above 8.1. Besides, the 50% effective concentration (EC50) (commonly the concentration giving half of the maximal effect) in data set [2] turned out to be 12.4 µM. Besides, the CC50 in data set [3] was above 100 µM.

Turning to `CCN(CC)c1nc(C)c2nc(SCC(=O)NCCNC(=N)N)n(CCCn3cncn3)c2n1`, the Ratio in data set [1] was above 18.5. Further, the EC50 in data set [2] was 5.4 µM. In addition, in data set [4], the inhibition (usually the change of the read-out against control, counted positive when it falls) at 30 µM was found to be 48.2%. For the same compound, the CC50 in data set [3] was above 100 µM.

Regarding `CCN(CC)c1nc(C)c2nc(SCC(=O)NCCCNC(=N)N)n(CCCn3cncn3)c2n1`, the Ratio in data set [1] is recorded as above 17.2. Further, the EC50 in data set [2] was 5.8 µM. Further, in data set [3], the CC50 is above 100 µM.

For the compound `CCN(CC)c1nc(C)c2nc(SCC(=O)NCCCNC(=N)N)n(CCn3cncn3)c2n1`, in data set [1], the Ratio is recorded as above 14.1. For the same compound, the EC50 in data set [2] worked out at 7.1 µM. Further, the CC50 in data set [3] was above 100 µM.

As to `CCN(CC)c1nc(C)c2nc(SCC(=O)NCCCNC(=N)N)n(CCNc3ncnc4[nH]cnc34)c2n1`, in data set [1], the Ratio is listed as above 7.7. Besides, in data set [2], the EC50 amounted to 13 µM. The inhibition at 30 µM in data set [4] was determined as 58.6%. Also, the CC50 in data set [3] is above 100 µM.

In the case of `CCN(CC)c1nc(C)c2nc(SCC(=O)NCCNC(=N)N)n(CCNc3nc(N)nc4[nH]cnc34)c2n1`, the Ratio in data set [1] was above 16.4. The EC50 in data set [2] was determined as 6.1 µM. The CC50 in data set [3] is above 100 µM.

For the compound `CCN(CC)c1nc(C)c2nc(SCC(=O)NCCCNC(=N)N)n(CCc3c[nH]c4ccccc34)c2n1`, the Ratio in data set [1] came out at 5.2. The 50% effective concentration (EC50) in data set [2] was 5.6 µM. For the same compound, in data set [3], the CC50 was found to be 29.1 µM.

In the case of `CCN(CC)c1nc(C)c2nc(SCC(=O)NCCNC(=N)N)n(CCCN3CCOCC3)c2n1`, the Ratio in data set [1] is listed as above 5.3. The EC50 in data set [2] came to 18.9 µM. For the same compound, the inhibition at 30 µM in data set [4] is 81.8%. Further, the CC50 in data set [3] is above 100 µM.

Consider `CCN(CC)c1nc(C)c2nc(SCC(=O)NCCCNC(=N)N)n(CCCN3CCOCC3)c2n1`, for which the Ratio in data set [1] is on record as above 8.9. Further, the EC50 in data set [2] is 11.2 µM. Also, the inhibition at 30 µM in data set [4] is 48.2%. For the same compound, the CC50 in data set [3] was above 100 µM.

In the case of `CCN(CC)c1nc(C)c2nc(SCC(=O)NCCN)n(CCc3c[nH]c4ccccc34)c2n1`, the Ratio in data set [1] is given as 4.1. Besides, the EC50 in data set [2] is 1.6 µM. Also, the CC50 in data set [3] amounted to 6.5 µM.

Take `CCN(CC)c1nc(C)c2nc(SCC(=O)NCCCN)n(CCc3c[nH]c4ccccc34)c2n1`: the Ratio in data set [1] is recorded as 2.4. Also, the 50% effective concentration (EC50) in data set [2] amounted to 4.2 µM. Moreover, in data set [3], the CC50 was determined as 10.2 µM.

As to `CCN(CC)c1nc(C)c2nc(SCC(=O)NCCNC(=N)N)n(CCc3c[nH]c4ccccc34)c2n1`, the Ratio in data set [1] was determined as 3.7. For the same compound, the concentration for a half-maximal effect (EC50) in data set [2] stood at 7.9 µM. The CC50 in data set [3] was determined as 29.5 µM.

On to `CCN(CC)c1nc(C)c2nc(SCC(=O)NCCCN)n(CCNc3ncnc4[nH]cnc34)c2n1`, for which the Ratio in data set [1] is given as above 18.2. The concentration giving a half-maximal response (EC50) in data set [2] worked out at 5.5 µM. Also, the inhibition at 30 µM in data set [4] turned out to be 52.3%. Further, the CC50 in data set [3] is above 100 µM.

In the case of `CCN(CC)c1nc(C)c2nc(SCC(=O)NCCN)n(CCNc3nc(N)nc4[nH]cnc34)c2n1`, the Ratio in data set [1] is on record as above 5. In data set [2], the EC50 stood at 20 µM. Further, the CC50 in data set [3] is above 100 µM.

With `CCN(CC)c1nc(C)c2nc(SCC(=O)NCCCN)n(CCNc3nc(N)nc4[nH]cnc34)c2n1`, the Ratio in data set [1] is above 15.4. For the same compound, the EC50 in data set [2] was 6.5 µM. The CC50 in data set [3] was above 100 µM.

For the compound `CCN(CC)c1nc(C)c2nc(SCC(=O)NCCNC(=N)N)n(CCNc3ncnc4[nH]cnc34)c2n1`, the Ratio in data set [1] was 11.9. Moreover, in data set [2], the half-maximal effective concentration (EC50) came to 7.8 µM. In data set [4], the inhibition at 30 µM is 48.2%. In addition, the CC50 in data set [3] stood at 92.7 µM.

Take `CCN(CC)c1nc(C)c2nc(SCC(=O)NCCCNC(=N)N)n(CCNc3nc(N)nc4[nH]cnc34)c2n1`: the Ratio in data set [1] was above 12. In data set [2], the EC50 is 8.3 µM. In data set [3], the CC50 was above 100 µM.

Regarding `CCN(CC)c1nc(C)c2nc(SCC(=O)NCCN)n(CCn3cncn3)c2n1`, the Ratio in data set [1] is on record as above 7.2. Besides, in data set [2], the EC50 amounted to 13.8 µM. Besides, the CC50 in data set [3] is above 100 µM.

As to `CCN(CC)c1nc(C)c2nc(SCC(=O)NCCCN)n(CCn3cncn3)c2n1`, in data set [1], the Ratio is reported as above 8.7. Also, the EC50 in data set [2] worked out at 11.5 µM. In addition, the CC50 in data set [3] was above 100 µM.

Regarding `CCN(CC)c1nc(C)c2nc(SCC(=O)NCCN)n(CCCn3cncn3)c2n1`, in data set [1], the Ratio is above 14.5. In addition, the EC50 in data set [2] is 6.9 µM. The inhibition at 30 µM in data set [4] came to 48.2%. Further, the CC50 in data set [3] was above 100 µM.

For `CCN(CC)c1nc(C)c2nc(SCC(=O)NCCN)n(CCCN3CCOCC3)c2n1`, the Ratio in data set [1] was 5.2. For the same compound, the 50% effective concentration (EC50) in data set [2] turned out to be 12.4 µM. Besides, the inhibition at 30 µM in data set [4] stood at 80.4%. Further, the CC50 in data set [3] was 64.8 µM.

In the case of `CCN(CC)c1nc(C)c2nc(SCC(=O)NCCCN)n(CCCn3cncn3)c2n1`, the Ratio in data set [1] was 3.6. The EC50 in data set [2] is 8.9 µM. Also, the CC50 in data set [3] came out at 31.7 µM.

Turning to `CCN(CC)c1nc(C)c2nc(SCC(=O)NCCN)n(CCNc3ncnc4[nH]cnc34)c2n1`, in data set [1], the Ratio is given as above 40. Besides, the EC50 in data set [2] stood at 2.5 µM. Besides, the inhibition at 30 µM in data set [4] worked out at 48.2%. In data set [3], the CC50 was above 100 µM.

As to `CCN(CC)c1nc(C)c2nc(SCC(=O)NCCCN)n(CCCN3CCOCC3)c2n1`, the Ratio in data set [1] was 7.4. The EC50 in data set [2] was 11.8 µM. Besides, the inhibition at 30 µM in data set [4] stood at 83%. For the same compound, in data set [3], the CC50 is 87.5 µM.
